Like-named read-outs stand apart in the source and are kept apart here.
Columns and labels:
rat CB2 = target: T1, rat CB2 (Rattus norvegicus, UniProt Q9QZN9); assay: rat CB2 radioligand binding assay ([3H]CP-55,940 competition); parameters: expressed in transfected cells; host or cells: HEK293
T1 sequence (Q9QZN9 1-360): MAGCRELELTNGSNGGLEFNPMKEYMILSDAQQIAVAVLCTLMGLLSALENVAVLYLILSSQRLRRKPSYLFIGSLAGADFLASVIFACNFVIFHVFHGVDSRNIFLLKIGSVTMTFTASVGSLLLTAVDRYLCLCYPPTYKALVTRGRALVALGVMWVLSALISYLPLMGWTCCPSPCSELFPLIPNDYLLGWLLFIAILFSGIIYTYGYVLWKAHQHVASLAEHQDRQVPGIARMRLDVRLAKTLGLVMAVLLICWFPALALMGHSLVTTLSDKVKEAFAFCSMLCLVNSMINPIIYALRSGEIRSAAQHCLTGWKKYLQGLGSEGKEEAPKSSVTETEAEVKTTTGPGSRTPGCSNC

human CB2 receptors = target: T2, human CB2 receptors (Homo sapiens, UniProt P34972); assay: human CB2 radioligand binding assay ([3H]CP-55,940 competition)
T2 construct: expressed in transfected cells; host or cells: HEK293

[1] = HEK293 membranes, 0.5 nM [3H]CP-55,940, read-out: human CB2 (Ki)

T2 sequence (P34972 whole entry): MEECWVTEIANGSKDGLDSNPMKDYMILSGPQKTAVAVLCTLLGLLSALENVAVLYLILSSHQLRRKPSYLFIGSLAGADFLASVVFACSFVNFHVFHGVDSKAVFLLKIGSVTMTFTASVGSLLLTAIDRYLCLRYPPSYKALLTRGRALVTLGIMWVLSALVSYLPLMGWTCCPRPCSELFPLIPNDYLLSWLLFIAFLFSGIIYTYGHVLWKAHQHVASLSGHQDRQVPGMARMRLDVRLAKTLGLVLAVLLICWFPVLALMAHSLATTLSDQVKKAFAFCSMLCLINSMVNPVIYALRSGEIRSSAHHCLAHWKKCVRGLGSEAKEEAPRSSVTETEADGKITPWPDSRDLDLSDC

SMILES	Ki (rat CB2) [µM]	Ki (human CB2 receptors; [1]) [µM]	Ki (human CB2 receptors) [µM]	Ki (rat CB2; HEK293 membranes, 0.5 nM [3H]CP-55,940, read-out: rat CB2 (Ki)) [µM]
COc1ccc(Cl)cc1C(=O)/N=c1\sn(C(C)(C)C)c2c1CC1(CC2)OCCO1 [Example 10, N-[(3Z)-1-tert-butyl-1,4,6,7-tetrahydro-3H-spiro[2,1-benzisothiazole-5,2′-[1,3]dioxolan]-3-ylidene]-5-chloro-2-methoxybenzamide]	0.042	0.19		
C#CCNC(=O)[C@@H]1CC[C@](C)(C(=O)/N=c2\sn(C(C)(C)C)cc2CCCC)C1(C)C [Example 239, (1S,3R)—N^1-[(5Z)-4-butyl-2-tert-butylisothiazol-5(2H)-ylidene]-1,2,2-trimethyl-N^3-prop-2-ynylcyclopentane-1,3-dicarboxamide]	0.07		0.072	
CCCCc1cn(C(C)(C)C)s/c1=N\C(=O)[C@]1(C)CC[C@H](NC(=O)N(C)c2ccccc2)C1(C)C [Example 264, (1R,3S)—N-[(5Z)-4-butyl-2-tert-butylisothiazol-5(2H)-ylidene]-1,2,2-trimethyl-3-({[methyl(phenyl)amino]carbonyl}amino)cyclopentanecarboxamide]	0.033		0.011	
CCCCc1cn(C(C)(C)C)s/c1=N\C(=O)[C@]1(C)CC[C@H](C(=O)N(C)OC)C1(C)C [Example 241, (1R,3S)—N^1-[(5Z)-4-butyl-2-tert-butylisothiazol-5(2H)-ylidene]-N^3-methoxy-N^3,1,2,2-tetramethylcyclopentane-1,3-dicarboxamide]	0.024		0.02	
CCCCc1cn(C(C)(C)C)s/c1=N\C(=O)[C@@]1(C)CC[C@@H](NC(N)=O)C1(C)C [Example 253, (1S,3R)-3-[(aminocarbonyl)amino]-N-[(5Z)-4-butyl-2-tert-butylisothiazol-5(2H)-ylidene]-1,2,2-trimethylcyclopentanecarboxamide]	0.045		0.16	
CCCCc1cn(C(C)(C)C)s/c1=N\C(=O)[C@@H]1CC[C@](C)(C(=O)NCCC)C1(C)C [Example 211, (1S,3R)—N^3-[(5Z)-4-butyl-2-tert-butylisothiazol-5(2H)-ylidene]-1,2,2-trimethyl-N^1-propylcyclopentane-1,3-dicarboxamide]		0.27		0.111
CCCCc1cn(C(C)(C)C)s/c1=N\C(=O)[C@H]1CC[C@@](C)(C(=O)O)C1(C)C [Example 181, (1R,3S)-3-({[(5Z)-4-butyl-2-tert-butylisothiazol-5(2H)-ylidene]amino}carbonyl)-1,2,2-trimethylcyclopentanecarboxylic acid]	0.015		0.16	
CCCCc1cn(C2(C)CCC2)s/c1=N\C(=O)c1cc(Cl)ccc1OC [Example 5, N-[(5Z)-4-butyl-2-(1-methylcyclobutyl)isothiazol-5(2H)-ylidene]-5-chloro-2-methoxybenzamide]	0.0022		0.03	
CCCCc1cn(C(C)(C)C)s/c1=N\C(=O)[C@@H]1CC[C@](C)(NC(=O)NC)C1(C)C [Example 247, (1R,3S)—N-[(5Z)-4-butyl-2-tert-butylisothiazol-5(2H)-ylidene]-2,2,3-trimethyl-3-{[(methylamino)carbonyl]amino}cyclopentanecarboxamide]	0.04		0.041	
CCCCc1cn(C(C)(C)C)s/c1=N\C(=O)[C@]1(C)CC[C@H](C(=O)N(C)C)C1(C)C [Example 179, (1R,3S)—N^1-[(5Z)-4-butyl-2-tert-butylisothiazol-5(2H)-ylidene]-N^3,N^3,1,2,2-pentamethylcyclopentane-1,3-dicarboxamide]	0.067		0.16	
CCCCc1cn(C(C)(C)C)s/c1=N\S(=O)(=O)c1cc(Cl)ccc1OC [Example 115, N-[(5Z)-4-butyl-2-tert-butylisothiazol-5(2H)-ylidene]-5-chloro-2-methoxybenzenesulfonamide]	0.033		0.053	
CCCCc1cn(C(C)(C)C)s/c1=N\C(=O)[C@H]1CC[C@@](C)(C(=O)NC)C1(C)C [Example 182, (1R,3S)—N-[(5Z)-4-butyl-2-tert-butylisothiazol-5(2H)-ylidene]-N^1,1,2,2-tetramethylcyclopentane-1,3-dicarboxamidetetramethylcyclopentane-1,3-dicarboxamide]	0.327		0.35	
CCCCc1cn(C(C)(C)C)s/c1=N\C(=O)OC12CC3CC(CC(C3)C1)C2 [Example 189, 1-adamantyl (5Z)-4-butyl-2-tert-butylisothiazol-5(2H)-ylidenecarbamate]	0.0053		0.039	
CCCCc1cn(C(C)(C)C)s/c1=N\C(=O)[C@@H]1CC[C@](C)(C2=NCCO2)C1(C)C [Example 224, (1R,3S)—N-[(5Z)-4-butyl-2-tert-butylisothiazol-5(2H)-ylidene]-3-(4,5-dihydro-1,3-oxazol-2-yl)-2,2,3-trimethylcyclopentanecarboxamide]	0.02		0.038	
CCCCc1cn(C(C)(C)C)s/c1=N\C(=O)[C@]1(C)CC[C@H](NC(=O)N2CC(F)(F)C2)C1(C)C [Example 261, N-[(1S,3R)-3-({[(5Z)-4-butyl-2-tert-butylisothiazol-5(2H)-ylidene]amino}carbonyl)-2,2,3-trimethylcyclopentyl]-3,3-difluoroazetidine-1-carboxamide]	0.044		0.054	
CCCCc1cn(C(C)(C)C)s/c1=N\C(=O)c1cc(C(F)(F)F)ccc1ONC(C)(C)C [Example 267, 2-[(tert-butylamino)oxy]-N-[(5Z)-4-butyl-2-tert-butylisothiazol-5(2H)-ylidene]-5-(trifluoromethyl)benzamide]	0.001		0.019	
CCCCc1cn(C(C)(C)C)s/c1=N\C(=O)c1cc(Cl)ccc1OCC(F)(F)F [Example 47, N-[(5Z)-4-butyl-2-tert-butylisothiazol-5(2H)-ylidene]-5-chloro-2-(2,2,2-trifluoroethoxy)benzamide]	0.0018		0.0073	
CCCCc1cn(C(C)(C)C)s/c1=N\C(=O)c1cc(C=NOC)ccc1OC [Example 57, N-[(5Z)-4-butyl-2-tert-butylisothiazol-5(2H)-ylidene]-2-methoxy-5-[(methoxyimino)methyl]benzamide]	0.018	0.19		
CCCCc1cn(C(C)(C)C)s/c1=N\C(=O)[C@@]1(C)CC[C@@H](NC(=O)c2ccccc2)C1(C)C [Example 255, N-[(1R,3S)-3-({[(5Z)-4-butyl-2-tert-butylisothiazol-5(2H)-ylidene]amino}carbonyl)-2,2,3-trimethylcyclopentyl]benzamide]	0.069		0.025	
CCCCc1cn(C(C)(C)C)s/c1=N\C(=O)[C@H]1CC[C@@](C)(C2=NCCO2)C1(C)C [Example 232, (1S,3R)—N-[(5Z)-4-butyl-2-tert-butylisothiazol-5(2H)-ylidene]-3-(4,5-dihydro-1,3-oxazol-2-yl)-2,2,3-trimethylcyclopentanecarboxamide]	0.018		0.045	
CCCCc1cn(C(C)(C)C)s/c1=N\C(=O)c1cc(OC(F)(F)F)ccc1OC [Example 63, N-[(5Z)-4-butyl-2-tert-butylisothiazol-5(2H)-ylidene]-2-methoxy-5-(trifluoromethoxy)benzamide]	0.0034		0.033	
COCCc1cn(C(C)(C)C)s/c1=N\C(=O)c1cc(Cl)ccc1OC [Example 11, N-[(5Z)-2-tert-butyl-4-(2-methoxyethyl)isothiazol-5(2H)-ylidene]-5-chloro-2-methoxybenzamide]	0.029			

Reference: patent US8501794B2, “Compounds as cannabinoid receptor ligands” (priority 2007, dated 2013)
